The record followed here is patent US20250236608A1, “EGFR INHIBITORS” (Blueprint Medicines Corporation, priority 2022, published 2025).

Counter-ions that a name gives are not always drawn.

Broadly, the IC50 is the concentration that inhibits the measured activity by half.

One assay concerns the target EGFR L858R (Homo sapiens (Human), UniProt P00533, L858R). The assay is described as follows: Biochemical EGFR inhibition assay, EGFR L858R. Particulars: Caliper mobility shift; 1.0 mM ATP or ATP Km; read-out: Enz EGFR_L858R IC50.
Another assay has as its target EGFR (d746-750) (Homo sapiens (Human), UniProt P00533, DEL746-750). The assay is described as follows: Biochemical EGFR inhibition assay, EGFR (d746-750). Particulars: Caliper mobility shift; 1.0 mM ATP or ATP Km; read-out: Enz EGFR_Exon19-del746-750 IC50.
Assay [1] concerns the target pEGFR (Tyr1068) in PC-9 cells (Ex19Del) (Homo sapiens (Human), UniProt P00533, DEL746-750). The assay is described as follows: PC-9 pEGFR AlphaLISA assay. Format: cell-based. As to conditions: 4 hours incubation, p-EGFR (Tyr1068) AlphaLISA, read-out: Ext pEGFR_PC-9 Ex19Del IC50. Summed up:
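Readout: AlphaLISA SureFire Ultra signal in cell lysates, with acceptor beads for 1.5-2 h and donor beads overnight at room temperature in the dark. Beforehand, unstimulated cells in 10% FBS medium received compounds (10 points, 4-fold steps) for 4 h at 37° C. IC50 came from percent inhibition curves.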
Background: Alpha assays give light when donor and acceptor beads are brought close together.

`COc1cc2ncnc(-c3cn(C)nc3-c3ccccc3)c2c(F)c1NC(=O)C1CCC1` [Example 295, N-(5-fluoro-7-methoxy-4-(1-methyl-3-phenyl-1H-pyrazol-4-yl)quinazolin-6-yl)cyclobutanecarboxamide]: the figures for the half-maximal inhibitory concentration (IC50) (at EGFR L858R; at EGFR (d746-750); in assay [1]) were 4.6 nM, 2.1 nM and 5.3 nM, respectively.
With `CCn1cc(-c2ncnc3cc(OC)c(NC(=O)[C@@]45C[C@@H]4CN(C)C5)nc23)c(-c2ccc(F)cc2)n1` (single isomer, unassigned) [Example 398, (1S,5S)—N-(4-(1-ethyl-3-(4-fluorophenyl)-1H-pyrazol-4-yl)-7-methoxypyrido[3,2-d]pyrimidin-6-yl)-3-methyl-3-azabicyclo[3.1.0]hexane-1-carboxamide or (1R,5R)—N-(4-(1-ethyl-3-(4-fluorophenyl)-1H-pyrazol-4-yl)-7-methoxypyrido[3,2-d]pyrimidin-6-yl)-3-methyl-3-azabicyclo[3.1.0]hexane-1-carboxamide], the IC50 at EGFR L858R was 2.6 nM; at EGFR (d746-750), 1.4 nM; in assay [1], 1.3 nM.
For `COc1cc2ncnc(-c3cn(C)nc3-c3ccccc3)c2cc1NC(=O)c1cnn(C)c1` [Example 294, N-(7-methoxy-4-(1-methyl-3-phenyl-1H-pyrazol-4-yl)quinazolin-6-yl)-1-methyl-1H-pyrazole-4-carboxamide], the results for the IC50 (on EGFR L858R; at EGFR (d746-750); in assay [1]) were 1 nM, 0.5 nM and 1.1 nM, respectively.
Take `COc1cc2ncnc(-c3cn(C)nc3-c3ccccc3)c2nc1NC(=O)c1cccc(F)c1` [Example 313, 3-fluoro-N-(7-methoxy-4-(1-methyl-3-phenyl-1H-pyrazol-4-yl)pyrido[3,2-d]pyrimidin-6-yl)benzamide]: the figures for the IC50 (at EGFR L858R; at EGFR (d746-750); in assay [1]) were 2.7 nM, 0.8 nM and 3.8 nM, respectively.
With `COc1cc2ncnc(-c3cn(CC(F)F)nc3-c3ccccc3)c2nc1NC(=O)C1(C(F)(F)F)CC1` [Example 370, N-(4-(1-(2,2-difluoroethyl)-3-phenyl-1H-pyrazol-4-yl)-7-methoxypyrido[3,2-d]pyrimidin-6-y1)-1-(trifluoromethyl)cyclopropane-1-carboxamide], the IC50 on EGFR L858R is 1.1 nM; on EGFR (d746-750) it was 0.7 nM; in assay [1], 0.4 nM.
The matching figures for `CCOc1cc2ncnc(-c3cn(CC)nc3-c3ccccc3)c2cc1CO` [Example 124, (7-ethoxy-4-(1-ethyl-3-phenyl-1H-pyrazol-4-yl)quinazolin-6-yl)methanol]: 1.3 nM, 0.9 nM and 3 nM.
Consider `CCn1ncc(-c2ncnc3cc(-c4cnn(C)c4)ccc23)c1-c1ccccc1` [Example 495], for which the values for the IC50 (at EGFR L858R; at EGFR (d746-750); in assay [1]) were 1.2 nM, 2.3 nM and 15.3 nM, respectively.
The matching figures for `COc1cc2ncnc(-c3cn(C)nc3-c3ccccc3)c2cc1NC(=O)C12CC(N(C)C)(C1)C2` [Example 341, 3-(dimethylamino)-N-(7-methoxy-4-(1-methyl-3-phenyl-1H-pyrazol-4-yl)quinazolin-6-yl)bicyclo[1.1.1]pentane-1-carboxamide trifluoroacetate]: 6.4 nM, 3 nM and 8.3 nM.
The matching figures for `CN(C)C12CC(C(=O)Nc3nc4c(-c5cn(C)nc5-c5ccccc5F)ncnc4cc3OC(F)F)(C1)C2` [Example 468, N-[7-(difluoromethoxy)-4-[3-(2-fluorophenyl)-1-methyl-1H-pyrazol-4-yl]pyrido[3,2-d]pyrimidin-6-yl]-3-(dimethylamino) bicyclo[1.1.1]pentane-1-carboxamide]: 60.4 nM, 7.4 nM and 22 nM.
The like results for `COc1cc2ncnc(-c3cn(C)nc3-c3ccccc3)c2cc1OC1COCCOC1` [Example 21, 6-((1,4-dioxepan-6-yl)oxy)-7-methoxy-4-(1-methyl-3-phenyl-1H-pyrazol-4-yl)quinazoline] were, in that order, 7.4 nM, 3 nM and 10.5 nM.
Consider `CCC(=O)Nc1cc2c(-c3cn(C)nc3-c3ccccc3)ncnc2cc1OCC1COC1` [Example 277, N-(4-(1-methyl-3-phenyl-1H-pyrazol-4-yl)-7-(oxetan-3-ylmethoxy)quinazolin-6-yl)propionamide], for which the IC50 at EGFR L858R stood at 3.7 nM; on EGFR (d746-750) it was 1.9 nM; in assay [1] it was 6 nM.
The matching figures for `COc1cc2ncnc(-c3cn(C)nc3-c3ccccc3)c2cc1NC(=O)c1cnn(C(F)(F)F)c1` [Example 187, N-(7-methoxy-4-(1-methyl-3-phenyl-1H-pyrazol-4-yl)quinazolin-6-yl)-1-(trifluoromethyl)-1H-pyrazole-4-carboxamide]: 2.6 nM, 1.5 nM and 4 nM.
The like results for `CCOc1cc2ncnc(-c3cn(C)nc3-c3ccccc3)c2cc1NC(=O)c1ccc(C2CC2)nc1` [Example 297, 6-cyclopropyl-N-(7-ethoxy-4-(1-methyl-3-phenyl-1H-pyrazol-4-yl)quinazolin-6-yl)nicotinamide] were, in that order, 0.9 nM, 0.5 nM and 0.9 nM.
The like results for `COc1cc2ncnc(-c3cn(C)nc3-c3ccccc3)c2cc1OC(=O)N1[C@H](C)CN(C)C[C@H]1C` [Example 89, 7-methoxy-4-(1-methyl-3-phenyl-1H-pyrazol-4-yl)quinazolin-6-yl (2R,6R)-2,4,6-trimethylpiperazine-1-carboxylate] were, in that order, 5.4 nM, 1.9 nM and 5.7 nM.
In the case of `COc1cc2ncnc(-c3cn(C)nc3-c3ccccc3)c2cc1NC(=O)c1ccc(F)cc1` [Example 222, 4-fluoro-N-(7-methoxy-4-(1-methyl-3-phenyl-1H-pyrazol-4-yl)quinazolin-6-yl)benzamide], the figures for the IC50 (on EGFR L858R; on EGFR (d746-750); in assay [1]) were 1.5 nM, 0.9 nM and 1.5 nM, respectively.
With `COc1cc2ncnc(-c3cn(C)nc3-c3ccc(F)cc3)c2nc1NC(=O)C1(C(F)(F)F)CC1` [Example 362, N-(4-(3-(4-fluorophenyl)-1-methyl-1H-pyrazol-4-yl)-7-methoxypyrido[3,2-d]pyrimidin-6-yl)-1-(trifluoromethyl)cyclopropane-1-carboxamide], the IC50 came out at 1.1 nM at EGFR L858R, 0.5 nM at EGFR (d746-750) and 0.7 nM in assay [1].
`COc1cc2ncnc(-c3cn(C)nc3-c3ccccc3)c2nc1O[C@@H](C)c1cnnn1C` [Example 42, (S)-7-methoxy-6-(1-(1-methyl-1H-1,2,3-triazol-5-yl)ethoxy)-4-(1-methyl-3-phenyl-1H-pyrazol-4-yl)pyrido[3,2-d]pyrimidine]: the IC50 at EGFR L858R was determined as 9.6 nM; on EGFR (d746-750), 2.9 nM; in assay [1] it was 43.9 nM.
On to `COc1cc2ncnc(-c3cn(C)nc3-c3ccccc3)c2cc1OC(=O)N1CCN(C)C[C@@H]1C` (stereo in doubt) [Example 59, 7-methoxy-4-(1-methyl-3-phenyl-1H-pyrazol-4-yl)quinazolin-6-yl(S)-2,4-dimethylpiperazine-1-carboxylate or 7-methoxy-4-(1-methyl-3-phenyl-1H-pyrazol-4-yl)quinazolin-6-yl (R)-2,4-dimethylpiperazine-1-carboxylate], for which the half-inhibitory concentration (IC50) on EGFR L858R came to 3.3 nM; at EGFR (d746-750), 2 nM; in assay [1], 4.2 nM.
For the compound `Cn1cc(-c2ncnc3cc(C#CCN4CCOCC4)c(NC(=O)C45CC(C4)C5)nc23)c(-c2ccccc2)n1` [Example 454, N-(4-(1-methyl-3-phenyl-1H-pyrazol-4-yl)-7-(3-morpholinoprop-1-yn-1-yl)pyrido[3,2-d]pyrimidin-6-yl)bicyclo[1.1.1]pentane-1-carboxamide], the IC50 on EGFR L858R came out at 18.1 nM; at EGFR (d746-750), 4.8 nM; in assay [1] it was 11 nM.
For `COc1cc2ncnc(-c3cn(C)nc3-c3ccccc3)c2cc1-c1cn(C)nc1C` [Example 150, 6-(1,3-dimethyl-1H-pyrazol-4-yl)-7-methoxy-4-(1-methyl-3-phenyl-1H-pyrazol-4-yl)quinazoline], the half-inhibitory concentration (IC50) at EGFR L858R turned out to be 2.2 nM; on EGFR (d746-750) it was 1.2 nM; in assay [1], 1.5 nM.
For `COc1cc2ncnc(-c3cn(C)nc3-c3ccccc3)c2cc1NC(=O)[C@H]1CCN(C)C[C@@H]1F` [Example 285, (3R,4R)-3-fluoro-N-(7-methoxy-4-(1-methyl-3-phenyl-1H-pyrazol-4-yl)quinazolin-6-yl)-1-methylpiperidine-4-carboxamide], the figures for the IC50 (at EGFR L858R; at EGFR (d746-750); in assay [1]) were 1.3 nM, 0.8 nM and 0.5 nM, respectively.
The like results for `Cn1cc(-c2ccc3c(-c4c[nH]nc4-c4ccccc4)ncnc3c2)cn1` [Example 441, 7-(1-methyl-1H-pyrazol-4-yl)-4-(3-phenyl-1H-pyrazol-4-yl)quinazoline] were, in that order, 1.1 nM, 0.7 nM and 0.4 nM.
The matching figures for `COc1cc2ncnc(-c3cn(C)nc3-c3ccccc3)c2nc1O[C@H](C)c1cccnc1F` [Example 48, (R)-6-(1-(2-fluoropyridin-3-yl)ethoxy)-7-methoxy-4-(1-methyl-3-phenyl-1H-pyrazol-4-yl)pyrido[3,2-d]pyrimidine]: 1.8 nM, 1.4 nM and 1.1 nM.
The like results for “7-methoxy-6-(2-methyl-2H-indazol-4-yl)-4-(1-methyl-3-phenyl-1H-pyrazol-4-yl)pyrido[3,2-d]pyrimidine [Example 155]” were, in that order, 7.3 nM, 2 nM and 5.1 nM.
